How the values were obtained:
[1] = molecular target: T1, ApAPEH (ApAAP) (Aeropyrum pernix, UniProt Q9YBQ2); assay: hydrolysis of p-nitroanilide substrate; assay type: biochemical
T1 construct: gene APE_1547.1; produced by the authors; details only in Data S1 chapter II

[2] = molecular target: T2, PhAPEH (PhAAP) (Pyrococcus horikoshii, UniProt O58323); assay: hydrolysis of p-nitroanilide substrate; assay type: biochemical
T2 construct: gene PH0594; produced by the authors; details only in Data S1 chapter II
T2 sequence (O58323 1-622): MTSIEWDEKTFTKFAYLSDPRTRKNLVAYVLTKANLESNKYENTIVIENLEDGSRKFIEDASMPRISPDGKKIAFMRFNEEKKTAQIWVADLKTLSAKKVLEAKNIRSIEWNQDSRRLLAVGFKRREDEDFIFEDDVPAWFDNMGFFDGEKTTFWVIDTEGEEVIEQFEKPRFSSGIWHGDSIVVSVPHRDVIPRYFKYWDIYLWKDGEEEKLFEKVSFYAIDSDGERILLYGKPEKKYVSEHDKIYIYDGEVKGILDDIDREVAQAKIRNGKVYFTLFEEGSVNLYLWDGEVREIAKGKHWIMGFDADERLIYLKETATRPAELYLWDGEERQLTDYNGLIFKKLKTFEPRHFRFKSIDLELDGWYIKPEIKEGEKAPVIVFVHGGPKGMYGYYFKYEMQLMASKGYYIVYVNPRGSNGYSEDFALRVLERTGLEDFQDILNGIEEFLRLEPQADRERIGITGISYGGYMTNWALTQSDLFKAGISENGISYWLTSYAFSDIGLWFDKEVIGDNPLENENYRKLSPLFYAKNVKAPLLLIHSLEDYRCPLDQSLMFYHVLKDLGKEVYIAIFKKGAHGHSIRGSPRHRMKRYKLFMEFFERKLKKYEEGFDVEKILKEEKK

[3] = molecular target: T3, pAPEH (porcine liver acylpeptide hydrolase, acylaminoacyl-peptidase, AAP) (Sus scrofa, UniProt P19205); assay: cryo-EM structure of complex ([…] A); assay type: binding; settings: covalent; Ser587 and His707; 10-fold molar excess, pH 7.5, 37 °C, 1 h
T3 construct: gene APEH; native, purified from porcine liver; homotetramer; catalytic Ser587, Asp675, His707
T3 sequence (P19205 1-732): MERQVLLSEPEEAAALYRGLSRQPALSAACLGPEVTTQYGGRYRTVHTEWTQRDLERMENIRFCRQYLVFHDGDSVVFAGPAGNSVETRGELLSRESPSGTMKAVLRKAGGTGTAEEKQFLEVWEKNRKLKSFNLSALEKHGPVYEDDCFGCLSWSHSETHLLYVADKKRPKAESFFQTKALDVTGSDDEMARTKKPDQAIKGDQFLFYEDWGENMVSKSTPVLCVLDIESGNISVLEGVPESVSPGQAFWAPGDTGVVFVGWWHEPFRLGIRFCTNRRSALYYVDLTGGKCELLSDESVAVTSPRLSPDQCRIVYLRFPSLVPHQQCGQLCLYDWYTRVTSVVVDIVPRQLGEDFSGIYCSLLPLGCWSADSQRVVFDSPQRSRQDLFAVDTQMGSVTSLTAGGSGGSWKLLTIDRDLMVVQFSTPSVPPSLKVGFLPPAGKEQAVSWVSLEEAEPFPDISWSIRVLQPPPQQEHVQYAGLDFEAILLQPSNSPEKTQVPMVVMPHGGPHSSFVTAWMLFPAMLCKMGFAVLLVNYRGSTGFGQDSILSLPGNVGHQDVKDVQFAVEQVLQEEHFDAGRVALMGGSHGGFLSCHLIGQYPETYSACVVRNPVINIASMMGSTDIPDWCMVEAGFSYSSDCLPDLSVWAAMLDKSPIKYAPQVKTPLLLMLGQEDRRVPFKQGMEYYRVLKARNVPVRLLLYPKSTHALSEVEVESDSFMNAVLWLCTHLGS

[4] = molecular target: T3, pAPEH (porcine liver acylpeptide hydrolase, acylaminoacyl-peptidase, AAP); assay type: binding
[5] = molecular target: T3, pAPEH (porcine liver acylpeptide hydrolase, acylaminoacyl-peptidase, AAP); assay type: binding; remark: listed apart in the source

T1 sequence (Q9YBQ2 whole entry): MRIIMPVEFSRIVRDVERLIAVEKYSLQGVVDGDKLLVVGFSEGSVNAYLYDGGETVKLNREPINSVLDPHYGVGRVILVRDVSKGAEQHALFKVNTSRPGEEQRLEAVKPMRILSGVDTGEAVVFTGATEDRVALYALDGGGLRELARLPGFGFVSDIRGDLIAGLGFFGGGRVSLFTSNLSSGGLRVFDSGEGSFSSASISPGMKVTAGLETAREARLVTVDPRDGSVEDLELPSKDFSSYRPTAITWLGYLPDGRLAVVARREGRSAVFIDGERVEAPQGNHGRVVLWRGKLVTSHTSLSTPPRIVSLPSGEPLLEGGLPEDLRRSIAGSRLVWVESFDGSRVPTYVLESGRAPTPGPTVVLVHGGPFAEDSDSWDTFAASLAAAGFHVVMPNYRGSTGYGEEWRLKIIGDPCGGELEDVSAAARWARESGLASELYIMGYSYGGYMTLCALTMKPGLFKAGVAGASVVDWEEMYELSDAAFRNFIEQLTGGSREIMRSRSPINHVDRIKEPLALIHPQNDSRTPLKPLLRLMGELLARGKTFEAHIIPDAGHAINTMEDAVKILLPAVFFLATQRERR

CC(=O)N[C@@H](CC(C)C)C(=O)Nc1ccc([N+](=O)[O-])cc1 [Ac-Leu-pNA]
hydrolysis of p-nitroanilide substrate [1]: archaeal variants are quite selective toward their specific substrate Ac‐Leu‐pNA | hydrolysis of p-nitroanilide substrate [2]: archaeal variants are quite selective toward their specific substrate Ac‐Leu‐pNA

CC(=O)N[C@@H](C)C(=O)CCl [ligand 1, acetyl-alanyl-chloromethyl ketone]
cryo-EM structure of complex (3.19 A) [3]: bound covalently to the active Ser587 and His707 (Figure 2a) of each monomer

COP(=O)(OC)OC=C(Cl)Cl [ligand 2, dichlorvos]
cryo-EM structure of complex (2.65 A) [4]: Dimethoxy‐phosphate (DMP) residue of dichlorvos is bound covalently to the active Ser587

NCCc1ccc(S(=O)(=O)F)cc1 [ligand 3, 4-(2-aminoethyl)benzenesulfonyl fluoride]
cryo-EM structure of complex (2.78 A) [5]: thus the inhibitor directly coordinates to the active Ser
